25 compounds from ChEMBL document CHEMBL4152374, “A new phenolic series of indenopyridinone as topoisomerase inhibitors: Design, synthesis, and structure-activity relationships” (Bioorg Med Chem, 2018) can be followed below.

For one test, the system named is HeLa. Kind of test: Antiproliferative activity against human HeLa cells after 72 hrs by EZ-CYTOX reagent based assay. In kind it is functional, cell-based.
Test [1] concerns the target DNA topoisomerase 2-alpha (Homo sapiens) (UniProt P11388). As to the kind of experiment: Inhibition of human topoisomerase 2-alpha using supercoiled pBR322 plasmid DNA as substrate at 20 uM after 30 mins by agarose gel electrophoresis method relative to etoposide.
Test [2] shares this target. Kind of test: Inhibition of human topoisomerase 2-alpha using supercoiled pBR322 plasmid DNA as substrate at 100 uM after 30 mins by agarose gel electrophoresis method relative to etoposide.
The test system of the next test is HCT-15. Kind of test: Antiproliferative activity against human HCT15 cells after 72 hrs by EZ-CYTOX reagent based assay. It is filed as functional, cell-based. Particulars: HCT-15, 72 h.
The test system of the next test is T47D. Kind of test: Antiproliferative activity against human T47D cells after 72 hrs by EZ-CYTOX reagent based assay. In kind it is functional, cell-based.
Test [3] concerns the target DNA topoisomerase 2-alpha (Homo sapiens) (UniProt P11388). As to the kind of experiment: Inhibition of human topoisomerase 2-alpha using supercoiled pBR322 plasmid DNA as substrate at 100 uM after 30 mins by agarose gel electrophoresis method relative to control.
Test [4] has the same target. Kind of test: Inhibition of human topoisomerase 2-alpha using supercoiled pBR322 plasmid DNA as substrate at 20 uM after 30 mins by agarose gel electrophoresis method relative to control.
Test [5] concerns the target T1, DNA topoisomerase 1 (Homo sapiens) (UniProt P11387).
T1 sequence (whole entry): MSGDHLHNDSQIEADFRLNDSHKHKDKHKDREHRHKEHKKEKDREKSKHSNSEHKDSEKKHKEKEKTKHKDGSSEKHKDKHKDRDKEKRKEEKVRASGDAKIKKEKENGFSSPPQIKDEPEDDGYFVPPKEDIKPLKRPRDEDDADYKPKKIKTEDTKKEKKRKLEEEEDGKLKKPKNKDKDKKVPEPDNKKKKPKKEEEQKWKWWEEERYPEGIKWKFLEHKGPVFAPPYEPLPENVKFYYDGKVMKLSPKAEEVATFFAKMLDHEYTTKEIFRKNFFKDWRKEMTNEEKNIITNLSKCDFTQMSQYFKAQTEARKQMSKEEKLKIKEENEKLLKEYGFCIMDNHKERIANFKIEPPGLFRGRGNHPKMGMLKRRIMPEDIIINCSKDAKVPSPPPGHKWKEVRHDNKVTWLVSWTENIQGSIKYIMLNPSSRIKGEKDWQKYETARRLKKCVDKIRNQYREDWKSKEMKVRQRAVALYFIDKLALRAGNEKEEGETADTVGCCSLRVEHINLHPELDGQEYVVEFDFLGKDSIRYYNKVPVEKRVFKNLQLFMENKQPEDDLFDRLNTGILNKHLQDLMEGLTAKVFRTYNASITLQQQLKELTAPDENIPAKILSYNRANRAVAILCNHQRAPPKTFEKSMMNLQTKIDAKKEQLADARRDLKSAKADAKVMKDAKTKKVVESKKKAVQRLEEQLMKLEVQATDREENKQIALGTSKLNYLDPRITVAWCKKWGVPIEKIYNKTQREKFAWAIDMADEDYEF
As to the kind of experiment: Inhibition of human topoisomerase 1 using supercoiled pBR322 plasmid DNA as substrate at 100 uM after 30 mins by agarose gel electrophoresis method relative to control.

Test [6] deals with T1, DNA topoisomerase 1 (Homo sapiens). As to the kind of experiment: Inhibition of human topoisomerase 1 using supercoiled pBR322 plasmid DNA as substrate at 20 uM after 30 mins by agarose gel electrophoresis method relative to control.
The subject of a further test is Calf thymus DNA. As to the kind of experiment: Inhibition of EtBr binding to calf thymus DNA up to 40 uM by fluorescence spectroscopy. In kind it is nucleic-acid assay. The conditions noted are these: Bos taurus.

Counter-ions that a name gives are not always drawn.

DNA topoisomerase 2-alpha (Homo sapiens), sequence (P11388 whole entry): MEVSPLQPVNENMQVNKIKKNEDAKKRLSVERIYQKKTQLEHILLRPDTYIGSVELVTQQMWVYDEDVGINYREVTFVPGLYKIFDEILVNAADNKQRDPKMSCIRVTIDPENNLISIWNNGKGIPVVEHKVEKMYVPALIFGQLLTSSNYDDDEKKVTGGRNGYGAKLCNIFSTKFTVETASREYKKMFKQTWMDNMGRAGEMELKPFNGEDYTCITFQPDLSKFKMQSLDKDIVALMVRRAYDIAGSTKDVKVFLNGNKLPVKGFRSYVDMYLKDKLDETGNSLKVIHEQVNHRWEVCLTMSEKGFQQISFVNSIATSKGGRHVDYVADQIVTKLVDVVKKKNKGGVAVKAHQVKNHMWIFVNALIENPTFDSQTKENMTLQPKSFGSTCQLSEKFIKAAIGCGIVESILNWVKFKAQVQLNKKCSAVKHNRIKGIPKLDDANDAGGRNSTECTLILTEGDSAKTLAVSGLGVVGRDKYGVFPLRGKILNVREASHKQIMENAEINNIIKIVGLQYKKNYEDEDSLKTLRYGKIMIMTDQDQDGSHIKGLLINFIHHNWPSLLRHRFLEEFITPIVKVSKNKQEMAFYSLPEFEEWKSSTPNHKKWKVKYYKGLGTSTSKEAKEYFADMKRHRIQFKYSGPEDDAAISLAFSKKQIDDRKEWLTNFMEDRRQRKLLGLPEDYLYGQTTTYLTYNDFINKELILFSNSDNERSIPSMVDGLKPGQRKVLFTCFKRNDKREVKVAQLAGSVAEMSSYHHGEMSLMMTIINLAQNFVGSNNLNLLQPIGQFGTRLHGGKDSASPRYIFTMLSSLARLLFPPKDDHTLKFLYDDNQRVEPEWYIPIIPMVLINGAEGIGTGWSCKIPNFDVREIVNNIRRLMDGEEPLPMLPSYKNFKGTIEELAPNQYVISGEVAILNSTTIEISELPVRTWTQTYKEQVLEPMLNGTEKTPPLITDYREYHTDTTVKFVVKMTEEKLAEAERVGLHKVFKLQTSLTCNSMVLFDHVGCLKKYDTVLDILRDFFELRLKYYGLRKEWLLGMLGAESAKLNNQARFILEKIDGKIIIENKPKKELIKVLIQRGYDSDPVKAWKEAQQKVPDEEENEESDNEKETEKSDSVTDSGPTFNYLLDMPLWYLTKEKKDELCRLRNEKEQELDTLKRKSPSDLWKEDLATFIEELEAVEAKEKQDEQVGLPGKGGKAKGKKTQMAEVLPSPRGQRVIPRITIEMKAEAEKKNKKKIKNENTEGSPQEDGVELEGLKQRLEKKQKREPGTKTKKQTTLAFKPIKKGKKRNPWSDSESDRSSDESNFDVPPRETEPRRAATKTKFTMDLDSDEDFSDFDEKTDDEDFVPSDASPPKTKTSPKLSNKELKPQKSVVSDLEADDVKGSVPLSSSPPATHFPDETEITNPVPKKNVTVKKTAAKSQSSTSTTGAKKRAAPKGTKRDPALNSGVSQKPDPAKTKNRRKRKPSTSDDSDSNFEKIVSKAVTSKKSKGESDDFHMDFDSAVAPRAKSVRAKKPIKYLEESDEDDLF

As to `O=C1c2ccccc2-c2nc(-c3ccc(O)cc3)cc(-c3ccc(O)cc3)c21`, the half-maximal inhibitory concentration (IC50) came to 4.72 µM with HeLa, 1.87 µM with HCT-15 and 0.37 µM with T47D. For the same compound, the fold change (FC) was 0.61 in [1] and 1.33 to 1.42 in test [2]. Also, the inhibition worked out at 100% in [3], 30.5% in test [4] and 0% in test [5].
For `Oc1cccc(-c2cc(-c3cccc(O)c3)c3c(n2)-c2ccccc2C3O)c1` (configuration not stated), the 50% inhibitory concentration (IC50) in the test on HeLa is 6.91 µM; with HCT-15, 6.2 µM; in the test on T47D it was 1.61 µM. For the same compound, the inhibition in test [3] was determined as 55.1%; in test [4] it was 17.8%; in [5], 20.1%.
For `OC1c2ccccc2-c2nc(-c3ccccc3)cc(-c3ccccc3)c21` (configuration not stated), the IC50 with HeLa, in the test on HCT-15 and in the test with T47D was above 50 µM throughout. Also, the inhibition in test [6] was 0%; in [3], 21.5%; in test [5], 81%.
As to `CC[C@@]1(O)C(=O)OCc2c1cc1n(c2=O)Cc2cc3ccccc3nc2-1` [CAMPTOTHECIN], the IC50 in the test on HeLa stood at 1.37 µM; with HCT-15, 0.05 µM.
As for `O=C1c2ccccc2-c2nc(-c3cccc(O)c3)cc(-c3ccccc3O)c21`, the 50% inhibitory concentration (IC50) in the test on HeLa is 1.52 µM; in the test with HCT-15, 1.36 µM; with T47D, 0.11 µM. Besides, in test [2], the fold change (FC) was determined as 0.03. In addition, the inhibition in test [3] was determined as 2.6%; in test [5] it was 0%.
`Oc1cccc(-c2cc(-c3ccccc3)c3c(n2)-c2ccccc2C3O)c1` (configuration not stated): the IC50 in the test on HeLa, with HCT-15 and in the test on T47D was above 50 µM in each case. Besides, the inhibition in test [3] came out at 40.7%; in test [4], 0.3%; in test [5], 0%.
For `O=C1c2ccccc2-c2nc(-c3ccc(O)cc3)cc(-c3ccccc3)c21`, the IC50 in the test on HeLa worked out at 2.25 µM; in the test with HCT-15, 2.18 µM; in the test with T47D, 1.4 µM. In [2], the fold change (FC) was 0.31. The inhibition in [3] stood at 23.3%; in [5], 0%.
As for `O=C1c2ccccc2-c2nc(-c3cccc(O)c3)cc(-c3cccc(O)c3)c21`, the figures for the IC50 in the test with HeLa, in the test with HCT-15 and in the test on T47D were above 50 µM, above 50 µM and 1.24 µM, respectively. Besides, the values for the fold change (FC) in test [1] and in test [2] were 0.47 and 0.98, respectively. For the same compound, the inhibition worked out at 68.9% in test [3], 20.8% in test [4] and 25.7% in [5].
As for `Oc1ccc(-c2cc(-c3cccc(O)c3)c3c(n2)-c2ccccc2C3O)cc1` (configuration not stated), the IC50 is 7.08 µM in the test with HeLa, 9.76 µM in the test on HCT-15 and 1.7 µM with T47D. Besides, the inhibition in [6] was 61.7%; in test [3] it was 60.9%; in test [4], 26.7%; in test [5], 71.9%.
Consider `O=C1c2ccccc2-c2nc(-c3ccccc3)cc(-c3cccc(O)c3)c21`, for which the IC50 in the test on HeLa worked out at 2.24 µM; in the test with HCT-15 it was 2.48 µM; with T47D it was 1.18 µM. For the same compound, the fold change (FC) in [2] was found to be 0.12. In addition, the values for the inhibition in [3] and in test [5] were 9.3% and 7.4%, respectively.
Consider `Oc1ccc(-c2cc(-c3ccccc3O)c3c(n2)-c2ccccc2C3O)cc1` (configuration not stated), for which the results for the IC50 in the test on HeLa, in the test with HCT-15 and in the test with T47D were 10.8 µM, 13 µM and 4.28 µM, respectively. Besides, the inhibition in test [3] was determined as 57.7%; in test [4] it was 12.1%; in [5], 11.5%.
Take `O=C1c2ccccc2-c2nc(-c3ccccc3)cc(-c3ccc(O)cc3)c21`: the IC50 in the test on HeLa, in the test on HCT-15 and in the test with T47D was above 50 µM each time. For the same compound, the fold change (FC) came out at 0.35 in test [1] and 0.9 in [2]. Besides, the inhibition in [6] worked out at 0%; in test [3], 63.3%; in test [4], 15.2%; in test [5] it was 50%.
`COc1cc(NS(C)(=O)=O)ccc1Nc1c2ccccc2nc2ccccc12`: the inhibition result in the test with Calf thymus DNA is “Dose-dependent effect”.
As to `O=C1c2ccccc2-c2nc(-c3ccccc3O)cc(-c3cccc(O)c3)c21`, the IC50 in the test with HeLa was 4.84 µM; in the test on HCT-15, 6.09 µM; in the test with T47D it was above 50 µM. Besides, the fold change (FC) in [1] was 0.26; in test [2] it was 1.15 to 1.23. Also, the inhibition in [3] was determined as 86.5%; in test [4], 12.8%; in test [5], 0%.
As to `O=C1c2ccccc2-c2nc(-c3ccccc3)cc(-c3ccccc3)c21`, the values for the IC50 with HeLa, with HCT-15 and in the test with T47D were above 50 µM, above 50 µM and 6.5 µM, respectively. The inhibition in test [3] amounted to 25%; in test [5], 5.8%.
As for `O=C1c2ccccc2-c2nc(-c3ccccc3O)cc(-c3ccc(O)cc3)c21`, the IC50 in the test with HeLa, with HCT-15 and in the test with T47D was above 50 µM in each case. In test [2], the fold change (FC) worked out at 0.07. The results for the inhibition in test [3] and in [5] were 5.2% and 0%, respectively.
Regarding `Oc1ccc(-c2cc(-c3ccccc3)nc3c2C(O)c2ccccc2-3)cc1` (configuration not stated), the half-inhibitory concentration (IC50) in the test with HeLa is above 50 µM; in the test on HCT-15 it was above 50 µM; in the test on T47D it was 3.25 µM. The inhibition in test [6] came to 0%; in test [3], 53.6%; in test [4], 22.6%; in [5], 63.9%.
`O=C1c2ccccc2-c2nc(-c3ccccc3O)cc(-c3ccccc3O)c21`: the 50% inhibitory concentration (IC50) in the test with HeLa, in the test with HCT-15 and in the test with T47D was above 50 µM throughout. The fold change (FC) in test [1] amounted to 0.2; in [2] it was 0.44. For the same compound, the inhibition was determined as 32.8% in test [3], 9.9% in [4] and 0% in test [5].
With `O=C1c2ccccc2-c2nc(-c3ccccc3)cc(-c3ccccc3O)c21`, the IC50 in the test with HeLa worked out at 2.58 µM; in the test on HCT-15, 2.32 µM; with T47D it was 1.33 µM. Moreover, in test [2], the fold change (FC) is 0.32. For the same compound, the inhibition was 23.8% in test [3] and 0% in test [5].
For the compound `O=C1c2ccccc2-c2nc(-c3cccc(O)c3)cc(-c3ccccc3)c21`, the concentration for half-maximal inhibition (IC50) with HeLa, in the test with HCT-15 and in the test with T47D was above 50 µM in each case. The fold change (FC) in test [2] was 0.32. Also, the figures for the inhibition in [3] and in [5] were 22.5% and 0.5%, respectively.
For the compound `COc1cc([C@@H]2c3cc4c(cc3[C@@H](O[C@@H]3O[C@@H]5CO[C@@H](C)O[C@H]5[C@H](O)[C@H]3O)[C@H]3COC(=O)[C@H]23)OCO4)cc(OC)c1O` [ETOPOSIDE], the IC50 in the test on HeLa is 9.21 µM; with HCT-15, 2.94 µM; in the test with T47D it was 0.4 µM.
On to `O=C1c2ccccc2-c2nc(-c3ccccc3O)cc(-c3ccccc3)c21`, for which the IC50 with HeLa was 31.7 µM; in the test on HCT-15, above 50 µM; in the test on T47D it was 10.5 µM. Moreover, the fold change (FC) in [2] worked out at 0.06. Also, the inhibition in test [3] worked out at 4.9%; in [5], 0%.
Turning to `COc1cccc2c1C(=O)c1c(O)c3c(c(O)c1C2=O)C[C@@](O)(C(=O)CO)C[C@@H]3O[C@H]1C[C@H](N)[C@H](O)[C@H](C)O1` [DOXORUBICIN HYDROCHLORIDE], the results for the IC50 in the test on HeLa and in the test with T47D were 1.5 µM and 0.31 µM, respectively.
Take `O=C1c2ccccc2-c2nc(-c3ccc(O)cc3)cc(-c3cccc(O)c3)c21`: the IC50 was 4.32 µM in the test on HeLa, 1.96 µM in the test on HCT-15 and 1.49 µM in the test with T47D. In addition, the fold change (FC) in test [1] stood at 1.38; in [2], 1.02. In addition, the inhibition in test [6] is 7.5%; in test [3] it was 71.9%; in [4] it was 60.5%; in test [5], 75.5%.
In the case of `O=C1c2ccccc2-c2nc(-c3ccc(O)cc3)cc(-c3ccccc3O)c21`, the half-maximal inhibitory concentration (IC50) turned out to be 2.3 µM in the test with HeLa, 2.82 µM in the test on HCT-15 and 0.42 µM in the test on T47D. Moreover, the fold change (FC) in [1] was 0.27; in test [2] it was 1.04. The inhibition amounted to 0% in [6], 72.8% in [3], 12% in test [4] and 60% in [5].
